The values below come from paper PMC4413211, “Esters of the Marine-Derived Triterpene Sipholenol A Reverse P-GP-Mediated Drug Resistance” (Marine Drugs, 2015).

The IC50 is the concentration needed to halve the response being measured. What is called EC50 is the concentration at which the effect is half-maximal.

In one series the test system is T1, SW620/Ad300.
T1 construct: doxorubicin-selected, P-gp overexpressing
Nature of the series: cells. Set-up: MTT cytotoxicity assay, absorbance at 570 nm. The conditions noted are these: Homo sapiens, SW620/AD300, 72 h. On the procedure: (§1) The MTT colorimetric assay was used to detect the sensitivity of cells to anticancer drugs. Cells were harvested with trypsin treatment. After washing with PBS, cells were resuspended in the culture media. Cells with a final concentration of 5 × 10^3 cells/well were seeded evenly into 96-well plates with 160 μL media. For the reversal experiments, SSJ compounds, verapamil, FTC or PAK104P (20 μL/well) was added followed by different concentrations of chemotherapeutic drugs (20 μL/well) into designated wells. After 72 h of incubation, 20 μL of MTT solution (5 mg/mL) was added to each well, and the plate was further incubated for 4 h, allowing viable cells to convert the yellow colored MTT into dark-blue formazan crystals. Subsequently, the medium was discarded, and 100 μL of dimethylsulfoxide (DMSO) was added into each well to dissolve the formazan crystals. The absorbance was determined at 570 nm by an OPSYS Microplate Reader from DYNEX Technologies Inc. (Chantilly, VA, USA) followed previously described protocol. The fold of resistance was calculated by dividing the IC50 (concentrations required to inhibit growth by 50%) of the MDR cells by that of the parental sensitive cells. Sipholane analogs (14 compounds) were first tested for cytotoxicity using MTT assay on colon cancer cells SW620 (drug-sensitive) and SW620/Ad300 (drug-resistant). […] Because these compounds were used at a concentration of 5 μM, which is the non-toxic concentration for all of them, they were considered to have no direct cytotoxic effect on cells. HEK293/pcDNA3.1, HEK/ABCB1, HEK/ABCG2 and HEK/ABCC1 cells were generated by transfecting the HEK293 cells with either empty pcDNA3.1 vector, ABCB1 expression vector, ABCG2 expression vector or ABCC1 expression vector respectively. HEK/ABCC1 was generated in the laboratory of Suresh V. Ambudkar (NCI, NIH, Bethesda, MD, USA). The human colon cancer cell line SW620 and doxorubicin-selected P-gp overexpressing SW620/Ad300 cell line were used for the reversal study. SW620, SW620/Ad300 and HEK/ABCG2 cells were also kindly provided by Susan Bates and Robert Robey (NCI, NIH, Bethesda, MD, USA). All the cell lines were grown as adherent monolayers in flasks with DMEM culture medium (GE Healthcare Life Sciences, Logan, UT, USA) supplemented with 10% bovine serum in a humidified incubator containing of 5% CO2 at 37 °C.

In a further series the test system is SW620. The series is described as follows: cells. The arrangement: species or system SW620; SW620/Ad300; MTT cytotoxicity assay, absorbance at 570 nm. Conditions: Homo sapiens, SW-620, 72 h. On the procedure: as §1
In series [1] the target is T2, P-glycoprotein (P-gp/ABCB1) (Homo sapiens, UniProt P08183). Nature of the series: Vanadate-sensitive ATPase stimulation in recombinant human P-gp membranes; supported by [3H]-paclitaxel accumulation/efflux in cells. Set-up: Recombinant human P-gp membrane. The class given is biochemical.
In series [2] the target is T2, P-glycoprotein (P-gp/ABCB1).

Molecules are shown by their SMILES. A value given as a limit tells only on which side of the number the result lay.

T2 sequence (P08183 whole entry): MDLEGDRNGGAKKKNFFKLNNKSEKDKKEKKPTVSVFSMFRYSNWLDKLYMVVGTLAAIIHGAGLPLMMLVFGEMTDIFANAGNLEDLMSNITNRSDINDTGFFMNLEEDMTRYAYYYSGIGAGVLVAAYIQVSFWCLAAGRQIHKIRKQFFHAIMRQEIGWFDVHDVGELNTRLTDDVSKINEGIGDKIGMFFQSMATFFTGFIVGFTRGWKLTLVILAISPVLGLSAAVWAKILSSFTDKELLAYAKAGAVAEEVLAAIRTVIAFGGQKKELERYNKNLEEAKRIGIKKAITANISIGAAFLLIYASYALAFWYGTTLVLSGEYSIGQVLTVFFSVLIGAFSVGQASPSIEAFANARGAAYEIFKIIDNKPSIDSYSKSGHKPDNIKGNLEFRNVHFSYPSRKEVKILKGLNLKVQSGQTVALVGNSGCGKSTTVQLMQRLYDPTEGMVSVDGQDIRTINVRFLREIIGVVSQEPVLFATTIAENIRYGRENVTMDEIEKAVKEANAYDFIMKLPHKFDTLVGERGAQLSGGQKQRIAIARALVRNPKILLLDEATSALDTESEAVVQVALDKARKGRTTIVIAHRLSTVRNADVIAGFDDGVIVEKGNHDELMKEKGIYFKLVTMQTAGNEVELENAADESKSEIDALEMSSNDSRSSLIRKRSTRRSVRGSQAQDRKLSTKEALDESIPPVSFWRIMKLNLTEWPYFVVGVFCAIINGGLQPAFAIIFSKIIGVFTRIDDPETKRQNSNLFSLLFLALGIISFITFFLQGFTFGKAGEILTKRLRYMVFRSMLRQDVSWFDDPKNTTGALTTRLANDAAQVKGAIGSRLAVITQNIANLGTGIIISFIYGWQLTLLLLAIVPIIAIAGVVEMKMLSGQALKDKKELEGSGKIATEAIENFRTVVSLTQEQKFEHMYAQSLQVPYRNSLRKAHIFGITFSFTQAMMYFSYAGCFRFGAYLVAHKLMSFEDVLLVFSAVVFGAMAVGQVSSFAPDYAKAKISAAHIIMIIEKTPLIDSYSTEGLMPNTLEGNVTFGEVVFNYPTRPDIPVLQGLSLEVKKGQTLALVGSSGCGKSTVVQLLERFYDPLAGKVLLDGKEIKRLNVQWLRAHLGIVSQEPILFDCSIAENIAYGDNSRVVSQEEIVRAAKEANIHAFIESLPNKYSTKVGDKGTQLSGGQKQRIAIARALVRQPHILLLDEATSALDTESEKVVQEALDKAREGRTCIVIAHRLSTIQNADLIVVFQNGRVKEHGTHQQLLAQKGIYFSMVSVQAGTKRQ

On to `CC1=CCC2C(CCC2(C)O)C(C)(C)C1CCC1C(C)(O)CCC2OC(C)(C)C(OC(=O)CCC(=O)O)CCC21C` (stereo not drawn) [SSJ25 (2)], for which the IC50 with SW620/Ad300 and in the series with SW620 was above 30 µM in each case.

On to `CC1=CCC2C1CC=C(C)C(CCC1C(C)(O)CCC3OC(C)(C)C(OC(=O)c4ccncc4)CCC31C)C2(C)C` (stereo not drawn) [SSJ33 (10)], for which the IC50 in the series on SW620/Ad300 and in the series on SW620 was above 30 µM throughout.

Take `CC(=O)OC1CCC2(C)C(CCC(C)(O)C2CCC2C(C)=CCC3C(CCC3(C)OC(C)=O)C2(C)C)OC1(C)C` (stereo not drawn) [SSJ27 (4)]: the half-maximal inhibitory concentration (IC50) in the series on SW620/Ad300 and in the series on SW620 was above 30 µM in each case.

Consider `CC1=CCC2C1CC=C(C)C(CCC1C(C)(O)CCC3OC(C)(C)C(OC(=O)CCC(=O)O)CCC31C)C2(C)C` (stereo not drawn) [SSJ34 (11)], for which the IC50 in the series on SW620/Ad300 and in the series on SW620 was above 30 µM each time.

Turning to `CC1=CC[C@H]2[C@H](CC[C@]2(C)O)C(C)(C)[C@H]1CC[C@H]1[C@]2(C)CC[C@H](OC(=O)c3ccncc3)C(C)(C)O[C@H]2CC[C@@]1(C)O` [SSJ32, sipholenol A-4-O-isonicotinate], the concentration for half-maximal inhibition (IC50) with SW620/Ad300 and in the series with SW620 was above 30 µM each time. Also, in series [1], the EC50 was determined as 0.6 µM.

`CC1=CCC2C1CC=C(C)C(CCC1C(C)(O)CCC3OC(C)(C)C(O)CCC31C)C2(C)C` (stereo not drawn) [SSJ28 (5)]: the IC50 with SW620/Ad300 and in the series on SW620 was above 30 µM throughout.

On to `CC1=CCC2C1CC=C(C)C(CCC1C(C)(O)CCC3OC(C)(C)C(OCc4ccccc4)CCC31C)C2(C)C` (stereo not drawn) [SSJ37 (14)], for which the IC50 in the series on SW620/Ad300 and in the series on SW620 was above 30 µM throughout.

On to `CC(=O)OC1CCC2(C)C(CCC(C)(O)C2CCC2C(C)=CCC3C(C)=CCC3C2(C)C)OC1(C)C` (stereo not drawn) [SSJ35 (12)], for which the concentration for half-maximal inhibition (IC50) in the series on SW620/Ad300 and in the series with SW620 was above 30 µM in each case.

With `CC(=O)O[C@H]1CC[C@]2(C)[C@H](CC[C@@](C)(O)[C@H]2CC[C@H]2C(C)=CC[C@H]3[C@H](CC[C@]3(C)O)C2(C)C)OC1(C)C` [SSJ26, sipholenol A-4-O-acetate], the half-inhibitory concentration (IC50) with SW620/Ad300 and with SW620 was above 30 µM in each case. Also, the concentration for a half-maximal effect (EC50) in series [1] was 0.26 µM.

As for `CC1=CCC2C(CCC2(C)O)C(C)(C)C1CCC1C(C)(O)CCC2OC(C)(C)C(OCc3ccccc3)CCC21C` (stereo not drawn) [SSJ36 (13)], the IC50 in the series on SW620/Ad300 and with SW620 was above 30 µM throughout.

With `CC1=CCC2C(CCC2(C)O)C(C)(C)C1CCC1C(C)(O)CCC2OC(C)(C)C(OC(=O)c3ccccc3)CCC21C` (stereo not drawn) [SSJ31 (8)], the IC50 with SW620/Ad300 and in the series with SW620 was above 30 µM throughout.

In the case of `CC(=O)O[C@H]1C(=O)[C@@]2(C)[C@H]([C@H](OC(=O)c3ccccc3)[C@]3(O)C[C@H](OC(=O)[C@H](O)[C@@H](NC(=O)c4ccccc4)c4ccccc4)C(C)=C1C3(C)C)[C@]1(OC(C)=O)CO[C@@H]1C[C@@H]2O` [paclitaxel], in series [2], the “[3H]-paclitaxel accumulation and efflux, resistant versus parental cells” value was “while the paclitaxel level significantly decreased in SW620/Ad300 drug-resistant cells, the levels of paclitaxel remained stable in parental SW620”.

As to `CC1=CCC2C1CC=C(C)C(CCC1C(C)(O)CCC3OC(C)(C)C(OC(=O)c4ccccc4)CCC31C)C2(C)C` (stereo not drawn) [SSJ29 (6)], the IC50 in the series with SW620/Ad300 and with SW620 was above 30 µM in each case.
